Results: ChEMBL document CHEMBL2202963, “GPR119 Modulators for the Treatment of Diabetes, Obesity, and Related Diseases: Patent Highlight” (ACS Med Chem Lett, 2012)
Each block holds one compound with its values, some of them ahead of it.

Assays:
[1] = target: T1, Glucose-dependent insulinotropic receptor (Homo sapiens, UniProt Q8TDV5); assay: Agonist activity at GPR119 expressed in CHO-K1 cells assessed as cAMP level after 1 hr by homogenous time-resolved fluorescence assay; assay type: functional, cell-based
T1 sequence (Q8TDV5 whole entry): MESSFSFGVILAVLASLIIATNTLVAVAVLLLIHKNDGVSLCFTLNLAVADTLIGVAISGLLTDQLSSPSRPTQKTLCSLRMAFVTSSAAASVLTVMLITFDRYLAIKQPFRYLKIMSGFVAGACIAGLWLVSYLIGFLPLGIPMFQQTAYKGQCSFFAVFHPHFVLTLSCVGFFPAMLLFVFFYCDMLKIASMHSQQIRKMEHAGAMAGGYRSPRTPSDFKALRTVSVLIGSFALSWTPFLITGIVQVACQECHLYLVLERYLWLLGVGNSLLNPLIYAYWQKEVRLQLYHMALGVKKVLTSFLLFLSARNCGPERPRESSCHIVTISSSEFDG

[2] = target: T1, Glucose-dependent insulinotropic receptor; assay: Agonist activity at human GPR119 expressed in MIN6 cells assessed as intracellular cAMP concentration after 45 mins by Alphascreen analysis; assay type: functional, cell-based
Rhesus monkey [3] = assay: Drug metabolism in monkey assessed as 3-fluoro-4-(5-fluoro-6-(4-(3-(2-fluoropropan-2-yl)-l, 2,4-oxadiazol-5-yl)piperidin-l -yl)pyrimidin-4-ylamino)benzoic acid metabolite by LC/MS/MS analysis; assay type: ADME, organism-based, Macaca mulatta; conditions: in vivo
Rattus norvegicus [4] = species on record: Rattus norvegicus; assay: Drug metabolism in rat assessed as 3-fluoro-4-(5-fluoro-6-(4-(3-(2-fluoropropan-2-yl)-1,2,4-oxadiazol-5-yl)piperidin-1-yl)pyrimidin-4-ylamino)-N-methylbenzamide metabolite by LC/MS/MS analysis; assay type: ADME, organism-based; conditions: in vivo
Rattus norvegicus [5] = species on record: Rattus norvegicus; assay: Drug metabolism in rat assessed as 3-fluoro-4-(5-fluoro-6-(4-(3-(2-fluoropropan-2-yl)-1,2,4-oxadiazol-5-yl)piperidin-1-yl)pyrimidin-4-ylamino)benzamide metabolite by LC/MS/MS analysis; assay type: ADME, organism-based; conditions: in vivo
Mus musculus [6] = species on record: Mus musculus; assay: Drug metabolism in mouse assessed as 3-fluoro-4-(5-fluoro-6-(4-(3-(2-fluoropropan-2-yl)-1,2,4-oxadiazol-5-yl)piperidin-1-yl)pyrimidin-4-ylamino)benzamide metabolite by LC/MS/MS analysis; assay type: ADME, organism-based; conditions: in vivo
Canis familiaris [7] = species on record: Canis familiaris; assay: Drug metabolism in dog assessed as 3-fluoro-4-(5-fluoro-6-(4-(3-(2-fluoropropan-2-yl)-1,2,4-oxadiazol-5-yl)piperidin-1-yl)pyrimidin-4-ylamino)benzamide metabolite by LC/MS/MS analysis; assay type: ADME, organism-based, Canis lupus familiaris; conditions: in vivo
Rattus norvegicus [8] = species on record: Rattus norvegicus; assay: Drug metabolism in rat assessed as 3-fluoro-4-(5-fluoro-6-(4-(3-(2-fluoropropan-2-yl)-l, 2,4-oxadiazol-5-yl)piperidin-l -yl)pyrimidin-4-ylamino)benzoic acid metabolite by LC/MS/MS analysis; assay type: ADME, organism-based; conditions: in vivo
Mus musculus [9] = species on record: Mus musculus; assay: Drug metabolism in mouse assessed as 3-fluoro-4-(5-fluoro-6-(4-(3-(2-fluoropropan-2-yl)-l, 2,4-oxadiazol-5-yl)piperidin-l -yl)pyrimidin-4-ylamino)benzoic acid metabolite by LC/MS/MS analysis; assay type: ADME, organism-based; conditions: in vivo
Rhesus monkey [10] = assay: Drug metabolism in monkey assessed as 3-fluoro-4-(5-fluoro-6-(4-(3-(2-fluoropropan-2-yl)-1,2,4-oxadiazol-5-yl)piperidin-1-yl)pyrimidin-4-ylamino)benzamide metabolite by LC/MS/MS analysis; assay type: ADME, organism-based, Macaca mulatta; conditions: in vivo
Canis familiaris [11] = species on record: Canis familiaris; assay: Drug metabolism in dog assessed as 3-fluoro-4-(5-fluoro-6-(4-(3-(2-fluoropropan-2-yl)-l, 2,4-oxadiazol-5-yl)piperidin-l -yl)pyrimidin-4-ylamino)benzoic acid metabolite by LC/MS/MS analysis; assay type: ADME, organism-based, Canis lupus familiaris; conditions: in vivo
Rhesus monkey [12] = assay: Drug metabolism in monkey assessed as 3-fluoro-4-(5-fluoro-6-(4-(3-(2-fluoropropan-2-yl)-1,2,4-oxadiazol-5-yl)piperidin-1-yl)pyrimidin-4-ylamino)-N-methylbenzamide metabolite by LC/MS/MS analysis; assay type: ADME, organism-based, Macaca mulatta; conditions: in vivo
Canis familiaris [13] = species on record: Canis familiaris; assay: Drug metabolism in dog assessed as 3-fluoro-4-(5-fluoro-6-(4-(3-(2-fluoropropan-2-yl)-1,2,4-oxadiazol-5-yl)piperidin-1-yl)pyrimidin-4-ylamino)-N-methylbenzamide metabolite by LC/MS/MS analysis; assay type: ADME, organism-based, Canis lupus familiaris; conditions: in vivo
Mus musculus [14] = species on record: Mus musculus; assay: Drug metabolism in mouse assessed as 3-fluoro-4-(5-fluoro-6-(4-(3-(2-fluoropropan-2-yl)-1,2,4-oxadiazol-5-yl)piperidin-1-yl)pyrimidin-4-ylamino)-N-methylbenzamide metabolite by LC/MS/MS analysis; assay type: ADME, organism-based; conditions: in vivo

- EC50 [1]: 100000 nM
SMILES: CC(C)(F)c1noc(C2CCN(c3ncnc(Nc4ccc(C(=O)O)cc4F)c3F)CC2)n1

- EC50 [2]: 2 nM
SMILES: CCc1cnc(N2CCC(C3Cc4cc(C5CCN(S(C)(=O)=O)CC5)ncc4O3)CC2)nc1 (stereo not given)

- EC50 [2]: 228 nM
SMILES: CCc1cnc(N2CCC(C3Cc4cc(-c5ccc(C(=O)N6CC(F)(F)C6)cc5)ccc4O3)CC2)nc1 (stereo not given)

- Drug metabolism (Rhesus monkey [3]): Active
- Drug metabolism (Rattus norvegicus [4]): Active
- Drug metabolism (Rattus norvegicus [5]): Active
- Drug metabolism (Mus musculus [6]): Active
- Drug metabolism (Canis familiaris [7]): Active
- Drug metabolism (Rattus norvegicus [8]): Active
- Drug metabolism (Mus musculus [9]): Active
- Drug metabolism (Rhesus monkey [10]): Active
- Drug metabolism (Canis familiaris [11]): Active
- Drug metabolism (Rhesus monkey [12]): Active
- Drug metabolism (Canis familiaris [13]): Active
- Drug metabolism (Mus musculus [14]): Active
SMILES: CN(C)C(=O)c1ccc(Nc2ncnc(N3CCC(c4nc(C(C)(C)F)no4)CC3)c2F)c(F)c1
